Laboratory results reported in patent US3994901A, “5-[1-Hydroxy-2-(s ubstituted-amino)]alkyl-8-hydroxy-3,4-dihydrocarbostyril derivatives” (Otsuka Pharmaceutical Company Limited, priority 1974, dated 1976).
Where a name gives a salt, the structure may show the parent alone.

How the values were obtained:
[1] = tested on: β-adreno-receptor; experiment: Inhibition of histamine-induced bronchoconstriction (bronchial resistance, Konzett-Rossler method) in anesthetized dogs; β-adreno-receptor stimulating activity; type: in vivo, dog (male hybrid adult dogs); details: femoral vein, 1 minute before histamine 10 mg/kg
Procedure: The stimulating activity of the compounds of this invention on β-adreno-receptor was determined as follows:
Male hybrid adult dogs, weighing 10 to 15 kg were anesthesized with 30 mg/kg of body weight of sodium pentobarbital administered intravenously. Each of the anesthesized dogs were secured on its back and a cannula was inserted into the trachea. Artificial respiration was conducted using a device according to the Konzett-Rossler method (Konzett H. & Rossler R., "Versuchsanordnug zu Untersuchungen an der Bronchial Moskolatur", Arch. Exp. Path., Pharmack, 195, 71 - 74, 27 - 40 (1940)). The volume of the overflowing air at the time of inhalation was measured through a pneumotachometer to determine the bronchial resistance and the values obtained were recorded on a polygraph.
In the above experiment, histamine was employed as a bronchoconstrictor at a dosage level of 10 mg/kg of body weight, and an aqueous solution containing each of the test compounds and controls shown in Table 1 below was then administered to each of the anesthesized dogs through the femoral vein at various dosage levels shown in Table 1 below 1 minute before the administration of the histamine. Sodium pentobarbital was infused during the experiment at a dosage level of 4 mg/kg of body weight/hr using an automatic injector in order to inhibit spontaneous respiration and to keep the anesthetic condition constant over the test period.

[2] = in vivo; details: rat, male rats (dd strain), fasted 12 hours

SMILES | Bronchial Resistance (%) ([1]; dose 0.01 ug/Kg) | Bronchial Resistance (%) ([1]; dose 0.03 ug/Kg) | Bronchial Resistance (%) ([1]; dose 0.1 ug/Kg) | Bronchial Resistance (%) ([1]; dose 0.3 ug/Kg) | Bronchial Resistance (%) ([1]; dose 1.0 ug/Kg) | Bronchial Resistance (%) ([1]; dose 3.0 ug/Kg) | Bronchial Resistance (%) ([1]; dose 10 ug/Kg) | Bronchial Resistance (%) ([1]; dose 30 ug/Kg) | Bronchial Resistance (%) ([1]; dose 100 ug/Kg) | LD50 ([2]; iv, I.v.) [mg/kg] | LD50 ([2]; po) [mg/kg]
CC(C)NCC(O)c1ccc(O)c2ncccc12 (stereo not drawn) [Quinterenol] | 0 | 0 | 0 | 0 | 0 | 0 | 0 | 7.6 | 15.3 |  | 
CC(C)(C)NCC(O)c1ccc(O)c(CO)c1 (stereo not drawn) [Salbutamol] | 0 | 0 | 16.6 | 33.3 | 66.6 | 100 |  |  |  |  | 
CCC(NC(C)C)C(O)c1ccc(O)c2c1CCC(=O)N2 (stereo not drawn) [5-(1-Hydroxy-2-isopropylamino)butyl-8-hydroxy-3,4-dihydrocarbostyril] |  |  |  |  |  |  |  |  |  | 81.5 | 830
CC(C)NCC(O)c1cc(O)cc(O)c1 (stereo not drawn) [Metaproterenol Sulfate (Arotec)] | 0 | 0 | 2.7 | 11.1 | 27.5 | 50.0 | 88.3 | 100 |  |  | 
CC(C)NCC(O)c1ccc(O)c(O)c1 (stereo not drawn) [Isoproterenol] |  | 16.6 |  |  | 100 |  |  |  |  |  | 
